In ChEMBL document CHEMBL4507268 (2021):

What was measured:
[1] = test system: Tyrosine-protein kinase ABL1 (Homo sapiens), P00519 [F317I]; conditions: Compound concentration 1000.0 nM
[2] = biological target: Cyclin-dependent kinase 2 (Homo sapiens) (UniProt P24941); conditions: Compound concentration 1000.0 nM
[3] = biological target: T1, Serine/threonine-protein kinase DCLK2 (Homo sapiens) (UniProt Q8N568); conditions: Compound concentration 1000.0 nM
T1 sequence (whole entry): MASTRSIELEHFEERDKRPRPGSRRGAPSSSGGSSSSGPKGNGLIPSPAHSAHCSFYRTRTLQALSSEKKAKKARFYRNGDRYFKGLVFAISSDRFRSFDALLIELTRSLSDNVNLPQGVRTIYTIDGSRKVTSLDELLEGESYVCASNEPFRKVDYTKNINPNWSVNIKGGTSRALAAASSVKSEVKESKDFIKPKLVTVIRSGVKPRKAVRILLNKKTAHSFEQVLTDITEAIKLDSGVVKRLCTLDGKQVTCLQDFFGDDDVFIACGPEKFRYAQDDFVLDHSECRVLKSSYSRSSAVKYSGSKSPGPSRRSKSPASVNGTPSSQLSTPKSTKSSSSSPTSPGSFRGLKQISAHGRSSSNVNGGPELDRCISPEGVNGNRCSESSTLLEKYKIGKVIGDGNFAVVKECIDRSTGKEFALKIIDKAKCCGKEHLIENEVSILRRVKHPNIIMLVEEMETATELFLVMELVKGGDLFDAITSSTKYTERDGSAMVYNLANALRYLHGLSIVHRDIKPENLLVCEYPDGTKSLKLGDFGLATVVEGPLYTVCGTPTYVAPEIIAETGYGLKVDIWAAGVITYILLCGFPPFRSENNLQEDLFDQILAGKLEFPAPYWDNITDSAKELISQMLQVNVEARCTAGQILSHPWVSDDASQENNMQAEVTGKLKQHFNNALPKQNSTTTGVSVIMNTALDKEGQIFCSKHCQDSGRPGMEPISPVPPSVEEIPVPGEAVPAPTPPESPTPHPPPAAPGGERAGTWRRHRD

[4] = biological target: T2, Beta-adrenergic receptor kinase 1 (Homo sapiens) (UniProt P25098); conditions: Compound concentration 1000.0 nM
T2 sequence (whole entry): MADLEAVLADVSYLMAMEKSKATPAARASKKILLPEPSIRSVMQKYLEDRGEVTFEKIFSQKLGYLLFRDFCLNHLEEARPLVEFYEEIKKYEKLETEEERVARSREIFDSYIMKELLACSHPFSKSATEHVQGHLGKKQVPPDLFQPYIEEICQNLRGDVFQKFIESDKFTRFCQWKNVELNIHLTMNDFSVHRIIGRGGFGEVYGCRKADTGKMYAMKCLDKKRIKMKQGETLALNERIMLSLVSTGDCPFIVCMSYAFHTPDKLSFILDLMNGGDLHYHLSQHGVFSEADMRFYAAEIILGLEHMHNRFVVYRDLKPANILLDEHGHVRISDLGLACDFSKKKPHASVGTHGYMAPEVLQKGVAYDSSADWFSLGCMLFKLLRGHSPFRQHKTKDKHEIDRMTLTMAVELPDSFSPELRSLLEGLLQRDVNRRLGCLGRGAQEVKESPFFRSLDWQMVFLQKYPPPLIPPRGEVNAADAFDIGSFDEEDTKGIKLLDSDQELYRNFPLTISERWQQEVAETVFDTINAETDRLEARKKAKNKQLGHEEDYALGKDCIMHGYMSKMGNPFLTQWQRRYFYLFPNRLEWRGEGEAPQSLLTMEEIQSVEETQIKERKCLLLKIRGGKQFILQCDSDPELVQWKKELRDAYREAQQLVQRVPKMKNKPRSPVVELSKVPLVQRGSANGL

[5] = biological target: Mitogen-activated protein kinase kinase kinase 1 (Homo sapiens) (UniProt Q13233); conditions: Compound concentration 1000.0 nM
Sequence of Mitogen-activated protein kinase kinase kinase 1 (Homo sapiens) (Q13233 whole entry): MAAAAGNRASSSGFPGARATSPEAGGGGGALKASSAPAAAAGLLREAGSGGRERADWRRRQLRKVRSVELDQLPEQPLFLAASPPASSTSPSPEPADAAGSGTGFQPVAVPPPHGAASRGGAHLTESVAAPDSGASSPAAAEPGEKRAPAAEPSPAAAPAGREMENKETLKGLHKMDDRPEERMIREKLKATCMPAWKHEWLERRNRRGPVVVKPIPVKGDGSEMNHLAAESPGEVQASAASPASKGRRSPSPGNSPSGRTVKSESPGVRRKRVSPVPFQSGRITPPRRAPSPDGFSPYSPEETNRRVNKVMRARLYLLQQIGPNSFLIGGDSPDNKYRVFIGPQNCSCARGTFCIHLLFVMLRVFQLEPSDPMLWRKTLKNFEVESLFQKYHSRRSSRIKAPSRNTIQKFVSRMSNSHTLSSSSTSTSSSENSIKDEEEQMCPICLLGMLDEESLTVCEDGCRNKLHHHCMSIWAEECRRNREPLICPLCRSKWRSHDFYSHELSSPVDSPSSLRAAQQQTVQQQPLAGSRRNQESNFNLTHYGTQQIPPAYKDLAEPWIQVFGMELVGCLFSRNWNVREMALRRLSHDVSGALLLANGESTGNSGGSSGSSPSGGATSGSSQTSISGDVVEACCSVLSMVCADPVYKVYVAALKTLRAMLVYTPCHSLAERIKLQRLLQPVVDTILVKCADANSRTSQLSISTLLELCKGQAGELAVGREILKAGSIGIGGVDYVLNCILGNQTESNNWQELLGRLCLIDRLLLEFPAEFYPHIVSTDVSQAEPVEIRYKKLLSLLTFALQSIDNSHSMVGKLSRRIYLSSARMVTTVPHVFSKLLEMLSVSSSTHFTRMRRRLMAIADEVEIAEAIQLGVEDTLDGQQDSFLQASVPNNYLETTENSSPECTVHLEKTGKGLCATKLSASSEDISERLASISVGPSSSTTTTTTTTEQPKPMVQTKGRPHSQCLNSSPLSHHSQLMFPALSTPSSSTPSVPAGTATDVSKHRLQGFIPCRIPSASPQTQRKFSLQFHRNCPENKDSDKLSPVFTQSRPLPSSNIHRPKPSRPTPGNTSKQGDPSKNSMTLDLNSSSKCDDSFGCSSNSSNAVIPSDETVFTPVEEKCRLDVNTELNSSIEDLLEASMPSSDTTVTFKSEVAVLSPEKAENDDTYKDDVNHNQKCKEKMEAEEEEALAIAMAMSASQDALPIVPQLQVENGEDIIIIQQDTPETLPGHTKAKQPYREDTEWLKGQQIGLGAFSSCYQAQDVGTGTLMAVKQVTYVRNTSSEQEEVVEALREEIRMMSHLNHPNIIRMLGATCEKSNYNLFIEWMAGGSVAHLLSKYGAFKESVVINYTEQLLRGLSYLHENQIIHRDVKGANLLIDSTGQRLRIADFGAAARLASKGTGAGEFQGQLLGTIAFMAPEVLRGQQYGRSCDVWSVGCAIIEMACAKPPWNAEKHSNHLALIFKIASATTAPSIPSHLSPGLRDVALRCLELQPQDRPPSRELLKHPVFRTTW

[6] = biological target: Serine/threonine-protein kinase MRCK alpha (Homo sapiens) (UniProt Q5VT25); conditions: Compound concentration 1000.0 nM
Sequence of Serine/threonine-protein kinase MRCK alpha (Homo sapiens) (Q5VT25 whole entry): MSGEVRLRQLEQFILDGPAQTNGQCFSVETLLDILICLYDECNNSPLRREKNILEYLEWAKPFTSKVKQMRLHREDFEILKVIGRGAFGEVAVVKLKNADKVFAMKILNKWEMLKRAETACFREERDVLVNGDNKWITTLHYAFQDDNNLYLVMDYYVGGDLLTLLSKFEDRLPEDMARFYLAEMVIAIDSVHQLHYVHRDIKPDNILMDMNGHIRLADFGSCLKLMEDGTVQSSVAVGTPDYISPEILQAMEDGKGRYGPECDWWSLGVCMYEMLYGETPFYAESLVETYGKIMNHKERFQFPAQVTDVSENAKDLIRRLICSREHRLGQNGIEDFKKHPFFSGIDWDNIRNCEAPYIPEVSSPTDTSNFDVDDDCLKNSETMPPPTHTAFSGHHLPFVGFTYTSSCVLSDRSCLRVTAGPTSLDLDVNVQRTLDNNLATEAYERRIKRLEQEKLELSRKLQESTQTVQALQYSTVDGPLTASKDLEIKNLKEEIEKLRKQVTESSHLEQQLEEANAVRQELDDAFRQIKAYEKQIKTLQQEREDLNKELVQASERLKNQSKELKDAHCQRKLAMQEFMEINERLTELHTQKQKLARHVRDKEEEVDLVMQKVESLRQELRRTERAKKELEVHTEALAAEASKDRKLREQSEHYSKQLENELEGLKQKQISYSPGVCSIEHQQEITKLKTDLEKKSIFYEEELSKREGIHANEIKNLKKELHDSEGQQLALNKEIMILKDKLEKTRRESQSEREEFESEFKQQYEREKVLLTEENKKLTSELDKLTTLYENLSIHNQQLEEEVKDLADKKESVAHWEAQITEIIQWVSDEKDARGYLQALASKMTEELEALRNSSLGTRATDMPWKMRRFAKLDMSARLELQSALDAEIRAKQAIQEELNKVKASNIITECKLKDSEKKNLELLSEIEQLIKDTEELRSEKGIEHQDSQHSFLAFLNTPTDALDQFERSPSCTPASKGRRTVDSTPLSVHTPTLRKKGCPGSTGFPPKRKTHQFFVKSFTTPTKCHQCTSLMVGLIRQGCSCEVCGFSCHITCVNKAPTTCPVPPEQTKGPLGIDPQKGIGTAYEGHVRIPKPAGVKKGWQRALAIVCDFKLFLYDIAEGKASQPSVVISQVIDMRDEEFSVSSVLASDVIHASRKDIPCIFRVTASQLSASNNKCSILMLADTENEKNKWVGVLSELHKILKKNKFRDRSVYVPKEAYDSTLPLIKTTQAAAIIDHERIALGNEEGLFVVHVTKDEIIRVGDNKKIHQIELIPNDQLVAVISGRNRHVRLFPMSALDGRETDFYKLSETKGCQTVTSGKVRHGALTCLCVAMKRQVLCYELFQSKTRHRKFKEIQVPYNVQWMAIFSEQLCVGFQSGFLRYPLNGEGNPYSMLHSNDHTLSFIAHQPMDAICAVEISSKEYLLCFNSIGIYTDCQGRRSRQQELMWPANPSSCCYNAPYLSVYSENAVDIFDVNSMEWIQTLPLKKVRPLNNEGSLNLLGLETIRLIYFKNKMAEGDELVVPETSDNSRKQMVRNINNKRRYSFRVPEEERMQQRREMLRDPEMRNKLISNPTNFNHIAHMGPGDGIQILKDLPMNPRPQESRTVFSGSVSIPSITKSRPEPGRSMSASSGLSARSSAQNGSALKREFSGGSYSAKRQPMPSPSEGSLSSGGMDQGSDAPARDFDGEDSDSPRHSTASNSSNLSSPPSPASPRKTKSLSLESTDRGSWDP

[7] = biological target: Mitogen-activated protein kinase 14 (Homo sapiens) (UniProt Q16539); conditions: Compound concentration 1000.0 nM
Sequence of Mitogen-activated protein kinase 14 (Homo sapiens) (Q16539 whole entry, canonical isoform): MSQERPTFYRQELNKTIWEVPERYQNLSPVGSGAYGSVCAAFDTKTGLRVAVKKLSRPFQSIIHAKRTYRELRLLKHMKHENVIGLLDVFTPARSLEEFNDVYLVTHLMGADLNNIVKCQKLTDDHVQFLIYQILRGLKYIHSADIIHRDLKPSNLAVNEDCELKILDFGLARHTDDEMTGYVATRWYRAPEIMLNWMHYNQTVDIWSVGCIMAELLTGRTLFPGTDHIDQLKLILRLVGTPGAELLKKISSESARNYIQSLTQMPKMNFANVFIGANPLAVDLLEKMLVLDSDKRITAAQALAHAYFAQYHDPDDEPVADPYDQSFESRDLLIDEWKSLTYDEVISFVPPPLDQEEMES

[8] = test system: Phosphatidylinositol 4,5-bisphosphate 3-kinase catalytic subunit alpha isoform (Homo sapiens), P42336 [I800L]; conditions: Compound concentration 1000.0 nM
[9] = biological target: T3, Serine/threonine-protein kinase D3 (Homo sapiens) (UniProt O94806); conditions: Compound concentration 1000.0 nM
T3 sequence (whole entry): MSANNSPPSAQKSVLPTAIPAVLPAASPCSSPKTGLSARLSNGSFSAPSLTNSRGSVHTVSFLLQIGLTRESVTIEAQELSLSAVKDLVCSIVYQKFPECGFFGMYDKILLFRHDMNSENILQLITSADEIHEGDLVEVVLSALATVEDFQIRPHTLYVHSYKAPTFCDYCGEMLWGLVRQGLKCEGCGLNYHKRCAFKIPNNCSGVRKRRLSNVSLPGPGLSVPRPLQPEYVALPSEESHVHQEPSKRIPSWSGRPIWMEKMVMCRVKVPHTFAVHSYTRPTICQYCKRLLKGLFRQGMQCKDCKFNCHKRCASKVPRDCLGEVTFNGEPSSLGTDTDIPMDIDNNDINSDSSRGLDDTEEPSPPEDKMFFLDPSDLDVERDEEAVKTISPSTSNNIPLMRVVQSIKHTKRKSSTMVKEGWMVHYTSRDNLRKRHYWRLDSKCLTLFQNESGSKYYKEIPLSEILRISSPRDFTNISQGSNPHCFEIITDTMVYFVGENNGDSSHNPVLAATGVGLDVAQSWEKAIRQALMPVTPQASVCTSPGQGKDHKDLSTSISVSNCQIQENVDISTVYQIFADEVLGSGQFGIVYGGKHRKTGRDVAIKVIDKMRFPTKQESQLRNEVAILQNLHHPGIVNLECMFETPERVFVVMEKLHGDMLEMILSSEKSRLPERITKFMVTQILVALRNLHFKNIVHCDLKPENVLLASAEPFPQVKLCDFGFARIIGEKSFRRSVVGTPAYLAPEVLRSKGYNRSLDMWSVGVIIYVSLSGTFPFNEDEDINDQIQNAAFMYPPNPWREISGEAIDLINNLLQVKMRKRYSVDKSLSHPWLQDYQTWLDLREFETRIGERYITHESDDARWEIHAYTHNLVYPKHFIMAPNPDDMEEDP

[10] = biological target: Serine/threonine-protein kinase SIK2 (Homo sapiens) (UniProt Q9H0K1); conditions: Compound concentration 1000.0 nM
Sequence of Serine/threonine-protein kinase SIK2 (Homo sapiens) (Q9H0K1 whole entry, looked up): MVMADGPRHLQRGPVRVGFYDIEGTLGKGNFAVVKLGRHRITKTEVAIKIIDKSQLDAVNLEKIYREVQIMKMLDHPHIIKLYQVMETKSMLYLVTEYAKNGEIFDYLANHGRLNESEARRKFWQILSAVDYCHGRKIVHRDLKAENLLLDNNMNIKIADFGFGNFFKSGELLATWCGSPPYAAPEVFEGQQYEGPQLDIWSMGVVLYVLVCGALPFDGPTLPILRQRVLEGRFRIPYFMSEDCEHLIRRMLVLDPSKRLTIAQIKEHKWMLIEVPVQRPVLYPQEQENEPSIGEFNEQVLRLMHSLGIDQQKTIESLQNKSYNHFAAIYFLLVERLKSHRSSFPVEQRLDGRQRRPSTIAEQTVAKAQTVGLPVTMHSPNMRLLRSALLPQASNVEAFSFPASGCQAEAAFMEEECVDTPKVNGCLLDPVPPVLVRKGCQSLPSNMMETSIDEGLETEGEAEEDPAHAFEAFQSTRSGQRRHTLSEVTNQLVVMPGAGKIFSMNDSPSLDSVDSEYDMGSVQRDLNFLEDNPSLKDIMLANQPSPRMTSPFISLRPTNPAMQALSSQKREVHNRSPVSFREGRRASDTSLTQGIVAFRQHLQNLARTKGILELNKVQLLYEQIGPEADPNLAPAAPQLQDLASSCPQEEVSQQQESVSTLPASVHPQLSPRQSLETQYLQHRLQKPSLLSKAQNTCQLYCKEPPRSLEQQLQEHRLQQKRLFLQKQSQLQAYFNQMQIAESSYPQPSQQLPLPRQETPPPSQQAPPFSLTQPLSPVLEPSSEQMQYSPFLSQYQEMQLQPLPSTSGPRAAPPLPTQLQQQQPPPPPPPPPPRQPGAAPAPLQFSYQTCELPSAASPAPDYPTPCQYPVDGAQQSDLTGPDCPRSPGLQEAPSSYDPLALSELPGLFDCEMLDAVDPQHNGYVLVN

[11] = biological target: Delta-type opioid receptor (Homo sapiens) (UniProt P41143); conditions: Compound concentration 10.0 uM
Sequence of Delta-type opioid receptor (Homo sapiens) (P41143 whole entry): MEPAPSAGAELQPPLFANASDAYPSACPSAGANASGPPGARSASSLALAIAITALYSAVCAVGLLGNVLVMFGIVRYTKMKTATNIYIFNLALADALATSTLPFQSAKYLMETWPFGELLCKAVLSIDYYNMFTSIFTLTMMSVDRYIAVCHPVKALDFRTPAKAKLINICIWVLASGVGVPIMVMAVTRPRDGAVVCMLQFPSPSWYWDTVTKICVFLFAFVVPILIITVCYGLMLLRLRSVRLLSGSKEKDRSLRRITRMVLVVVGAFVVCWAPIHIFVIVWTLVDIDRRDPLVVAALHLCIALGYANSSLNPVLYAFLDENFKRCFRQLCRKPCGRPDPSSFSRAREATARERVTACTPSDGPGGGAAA

Cc1nc(C2CCN(C(=O)c3ccc(OC(F)(F)F)cc3N)CC2)c2ncc(N3CCN(C)CC3)cc2n1 [BAY-693]
inactive: residual activity [1] 76% | residual activity [2] 87% | residual activity [3] 100% | residual activity [4] 92% | residual activity [5] 82% | residual activity [6] 99% | residual activity [7] 100% | residual activity [8] 96% | residual activity [9] 100% | residual activity [10] 100% | inhibition [11] 4.34%

CN1CCN(c2cnc3c(C4CCN(C(=O)c5ccc(OC(F)(F)F)cc5N)CC4)ncnc3c2)CC1 [BAY-885]
inactive: residual activity [1] 99% | residual activity [2] 100% | residual activity [3] 100% | residual activity [4] 100% | residual activity [5] 100% | residual activity [6] 100% | residual activity [7] 99% | residual activity [8] 100% | residual activity [9] 100% | residual activity [10] 100% | inhibition [11] 0.94%
